Test results from patent publication US11377442B2, “Small molecule agonists and antagonists of NR2F6 activity” (ZANDER THERAPEUTICS, INC., priority 2016, dated 2022).

Tests used:
Assay type in all cases: cell-based
HEK293 pGL4 = test: Firefly_pGL signal, cmpd/DMSO (pGL4 control cells); settings: Homo sapiens, HEK293, Table 14, read-out: Firefly pGL4, cmpd/DMSO (mean)
NR2F6 = target: T1, NR2F6 (Homo sapiens, UniProt P10588); test: NR2F6 agonist screening, Firefly signal cmpd/DMSO; settings: Table 14
T1 construct: expressed in transfected cells; also transient transfection
T1 sequence (P10588 1-404): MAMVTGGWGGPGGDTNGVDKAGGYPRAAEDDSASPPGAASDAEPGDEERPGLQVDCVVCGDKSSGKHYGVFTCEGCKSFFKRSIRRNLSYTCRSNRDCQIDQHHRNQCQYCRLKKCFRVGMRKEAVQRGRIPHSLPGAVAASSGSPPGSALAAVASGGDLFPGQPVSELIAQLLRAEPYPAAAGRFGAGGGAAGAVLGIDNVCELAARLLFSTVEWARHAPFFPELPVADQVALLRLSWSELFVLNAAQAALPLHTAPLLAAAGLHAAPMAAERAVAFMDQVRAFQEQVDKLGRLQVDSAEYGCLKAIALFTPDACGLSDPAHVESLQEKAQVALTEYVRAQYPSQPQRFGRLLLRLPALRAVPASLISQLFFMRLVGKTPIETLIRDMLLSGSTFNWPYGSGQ

Renilla = Renilla signal in NR2F6 agonist screening, cmpd/DMSO; settings: Renilla, Table 14, read-out: Renilla F4, cmpd/DMSO (mean)

CCOC(=O)c1cnc2c(C)cccc2c1NCCCN(C)C [Compound Z90] gave a fold induction at 2 µM (HEK293 pGL4) of 0.7, a fold induction at 10 µM (HEK293 pGL4) of 2.4 and a fold induction at 40 µM (HEK293 pGL4) of 0.7. The “Firefly F4, cmpd/DMSO (mean)” value (NR2F6; 2 uM) was 0.7, the “Firefly F4, cmpd/DMSO (mean)” value (NR2F6; 10 uM) was 2.5 and the “Firefly F4, cmpd/DMSO (mean)” value (NR2F6; 40 uM) was 0.4. For the same compound, the fold induction at 2 µM (Renilla) was 0.9, the fold induction at 10 µM (Renilla) was 0.2 and the fold induction at 40 µM (Renilla) was 0.1.
Compound Cc1cc(C)n2nc(CNS(=O)(=O)c3ccc(Cl)cc3)nc2n1 [Compound Z91] has a fold induction at 2 µM (HEK293 pGL4) of 1, a fold induction at 10 µM (HEK293 pGL4) of 1 and a fold induction at 40 µM (HEK293 pGL4) of 1.1. The “Firefly F4, cmpd/DMSO (mean)” value (NR2F6; 2 uM) was 1.0, the “Firefly F4, cmpd/DMSO (mean)” value (NR2F6; 10 uM) was 1.1 and the “Firefly F4, cmpd/DMSO (mean)” value (NR2F6; 40 uM) was 1.3. For the same compound, the fold induction at 2 µM (Renilla) was 1.1, the fold induction at 10 µM (Renilla) was 1.1 and the fold induction at 40 µM (Renilla) was 0.8.
